How the values were obtained:
redroot pigweed = assay: Test A pre-/postemergence greenhouse test; format: in vivo, Amaranthus retroflexus; conditions: for Plant response rating, Pigweed: 0 to 100 scale where 0 is no effect and 100 is complete control; for Pigweed plant response rating: 0 to 100 scale
Procedure, shortened: (§1)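 Visual injury ratings against untreated controls, taken roughly ten days after treatment in greenhouse. Plants were sprayed postemergence at one- to two-leaf stage (2–10 cm tall); at the same time, seeded loam/sand soil received a directed preemergence spray. Formulation: non-phytotoxic solvent mixture with surfactant.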

velvetleaf [1] = assay: Test A pre-/postemergence greenhouse test; format: in vivo, Abutilon theophrasti; conditions: for Plant response rating, Velvetleaf: 0 to 100 scale where 0 is no effect and 100 is complete control; for Velvetleaf plant response rating: 0 to 100 scale
Procedure, shortened: as §1

wheat [2] = assay: Test A pre-/postemergence greenhouse test; format: in vivo, Triticum aestivum; conditions: for Plant response rating, Wheat: 0 to 100 scale where 0 is no effect and 100 is complete control; for Wheat plant response rating: 0 to 100 scale
Procedure, shortened: as §1

downy brome = assay: Test C pre-/postemergence test; format: in vivo, Bromus tectorum
Text: (§2) Seeds of plant species selected from blackgrass (Alopecurus myosuroides), downy brome (Bromus tectorum), green foxtail (Setaria viridis), Italian ryegrass (Lolium multiflorum), wheat (Triticum aestivum), wild oat (Avena fatua), catchweed bedstraw (Galium aparine), Russian thistle (Salsola kali), […] (Cynodon dactylon), Surinam grass (Brachiaria decumbens), cocklebur (Xanthium strumarium), corn (Zea mays), crabgrass (Digitaria sanguinalis), woolly cupgrass (Eriochloa villosa), giant foxtail (Setaria faberii), Goosegrass (Eleusin indica), johnsongrass (Sorghum halepense), kochia (Kochia scoparia), lambsquarters (Chenopodium album), morningglory (Ipomoea coccinea), eastern black nightshade (Solanum ptycanthum), yellow nutsedge (Cyperus esculentus), pigweed (Amaranthus retroflexus), common ragweed (Ambrosia elation), soybean (Glycine max), common (oilseed) sunflower (Helianthus annuus), and velvetleaf (Abutilon theophrasti) were planted and treated preemergence with test chemicals formulated in a non-phytotoxic solvent mixture which included a surfactant. At the same time, plants selected from these crop and weed species and also winter barley (Hordeum vulgare), canarygrass (Phalaris minor), and chickweed (Stellaria media) were treated with postemergence applications of some of the test chemicals formulated in the same manner. Plants ranged in height from 2 to 18 cm (1- to 4-leaf stage) for postemergence treatments. […] At time of treatment, test pots were flooded to 3 cm above the soil surface, treated by application of test compounds directly to the paddy water, and then maintained at that water depth for the duration of the test. […] A dash (-) response means no test result.

wheat [3] = assay: Test C pre-/postemergence test; format: in vivo, Triticum aestivum
Text: as §2

wild oat = assay: Test C pre-/postemergence test; format: in vivo, Avena fatua
Text: as §2

corn = assay: Test C pre-/postemergence test; format: in vivo, Zea mays
Text: as §2

woolly cupgrass = assay: Test C pre-/postemergence test; format: in vivo, Eriochloa villosa
Text: as §2

giant foxtail = assay: Test C pre-/postemergence test; format: in vivo, Setaria faberii
Text: as §2

johnsongrass = assay: Test C pre-/postemergence test; format: in vivo, Sorghum halepense
Text: as §2

morningglory = assay: Test C pre-/postemergence test; format: in vivo, Ipomoea coccinea
Text: as §2

yellow nutsedge = assay: Test C pre-/postemergence test; format: in vivo, Cyperus esculentus
Text: as §2

velvetleaf [4] = assay: Test C pre-/postemergence test; format: in vivo, Abutilon theophrasti
Text: as §2

rice = assay: Test C flooded paddy test; format: in vivo, Oryza sativa; conditions: Flood
Procedure, shortened: (§3)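 Flooded 3 cm over soil; compound into paddy water; depth kept constant. Greenhouse 13–15 d.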

duck salad = assay: Test C flooded paddy test; format: in vivo, Heteranthera limosa; conditions: Flood
Procedure, shortened: as §3

[5] = Postemergence, 500 g ai/ha, 0 is no effect, 100 is complete control
[6] = Preemergence, 125 g ai/ha, 0 no effect, 100 complete control
[7] = 62 g ai/ha, Preemergence, scale 0 to 100
[8] = 125 g ai/ha, preemergence, scale 0 (no effect) to 100 (complete control)
[9] = Postemergence, 62 g ai/ha, scale 0 to 100, 0 no effect, 100 complete control
[10] = Postemergence, 125 g ai/ha, scale 0 to 100, 0 no effect, 100 complete control
[11] = Postemergence, 250 g ai/ha, scale 0 to 100, 0 no effect, 100 complete control
[12] = Preemergence, 31 g ai/ha, scale 0 to 100 (0 no effect, 100 complete control)
[13] = preemergence, 250 g ai/ha, scale 0 (no effect) to 100 (complete control)
[14] = 62 g ai/ha, scale 0 to 100 (0 no effect, 100 complete control)
[15] = 250 g ai/ha, scale 0 to 100, 0 no effect, 100 complete control, 13 to 15 days

CCn1nc(C(F)(F)F)c(C[S+]([O-])c2cccc[n+]2[O-])c1OCC(F)(F)F (racemic) [Compound 65]
Plant response rating, Pigweed (redroot pigweed; Postemergence, 125 g ai/ha): 80
Pigweed plant response rating (redroot pigweed; [5]): 90
Pigweed plant response rating (redroot pigweed; [6]): 100
Plant response rating, Pigweed (redroot pigweed; Preemergence, 500 g ai/ha): 100
Plant response rating, Velvetleaf (velvetleaf [1]; Postemergence, 125 g ai/ha): 80
Velvetleaf plant response rating (velvetleaf [1]; [5]): 90
Velvetleaf plant response rating (velvetleaf [1]; [6]): 100
Plant response rating, Velvetleaf (velvetleaf [1]; Preemergence, 500 g ai/ha): 100
Plant response rating, Wheat (wheat [2]; Postemergence, 125 g ai/ha): 60
Wheat plant response rating (wheat [2]; [5]): 70
Wheat plant response rating (wheat [2]; [6]): 80
Plant response rating, Wheat (wheat [2]; Preemergence, 500 g ai/ha): 100
Bromegrass, Downy plant response rating (downy brome; [7]): 100
Bromegrass, Downy plant response rating (downy brome; [8]): 100
Plant response rating (0 to 100), Bromegrass, Downy (downy brome; Postemergence, 31 g ai/ha): 0
Plant response rating, Bromegrass, Downy (downy brome; [9]): 10
Plant response rating, Bromegrass, Downy (downy brome; [10]): 30
Plant response rating, Bromegrass, Downy (downy brome; [11]): 75
Plant response rating, Bromegrass, Downy (downy brome; [12]): 65
Bromegrass, Downy plant response rating (downy brome; [13]): 100
Wheat plant response rating (wheat [3]; [7]): 80
Wheat plant response rating (wheat [3]; [8]): 100
Plant response rating (0 to 100), Wheat (wheat [3]; Postemergence, 31 g ai/ha): 0
Plant response rating (0 to 100), Wheat (wheat [3]; Postemergence, 62 g ai/ha): 0
Plant response rating, Wheat (wheat [3]; [10]): 25
Plant response rating, Wheat (wheat [3]; [11]): 30
Plant response rating, Wheat (wheat [3]; [12]): 50
Wheat plant response rating (wheat [3]; [13]): 100
Oat, Wild plant response rating (wild oat; [7]): 98
Oat, Wild plant response rating (wild oat; [8]): 98
Plant response rating (0 to 100), Oat, Wild (wild oat; Postemergence, 31 g ai/ha): 0
Plant response rating, Oat, Wild (wild oat; [9]): 40
Plant response rating, Oat, Wild (wild oat; [10]): 80
Plant response rating, Oat, Wild (wild oat; [11]): 85
Plant response rating, Oat, Wild (wild oat; [12]): 85
Oat, Wild plant response rating (wild oat; [13]): 100
Corn plant response rating (corn; [7]): 100
Corn plant response rating (corn; [8]): 100
Plant response rating (0 to 100), Corn (corn; Postemergence, 31 g ai/ha): 0
Plant response rating, Corn (corn; [9]): 0
Plant response rating, Corn (corn; [10]): 50
Plant response rating, Corn (corn; [12]): 70
Corn plant response rating (corn; [13]): 100
Cupgrass, Woolly plant response rating (woolly cupgrass; [7]): 40
Cupgrass, Woolly plant response rating (woolly cupgrass; [8]): 100
Plant response rating (0 to 100), Cupgrass, Woolly (woolly cupgrass; Postemergence, 31 g ai/ha): 0
Plant response rating, Cupgrass, Woolly (woolly cupgrass; [9]): 0
Plant response rating, Cupgrass, Woolly (woolly cupgrass; [10]): 0
Plant response rating, Cupgrass, Woolly (woolly cupgrass; [11]): 40
Plant response rating, Cupgrass, Woolly (woolly cupgrass; [12]): 40
Cupgrass, Woolly plant response rating (woolly cupgrass; [13]): 100
Foxtail, Giant plant response rating (giant foxtail; [8]): 100
Plant response rating (0 to 100), Foxtail, Giant (giant foxtail; Postemergence, 31 g ai/ha): 0
Plant response rating, Foxtail, Giant (giant foxtail; [9]): 0
Plant response rating, Foxtail, Giant (giant foxtail; [10]): 40
Plant response rating, Foxtail, Giant (giant foxtail; [11]): 80
Plant response rating, Foxtail, Giant (giant foxtail; [12]): 98
Foxtail, Giant plant response rating (giant foxtail; [13]): 100
Johnsongrass plant response rating (johnsongrass; [7]): 100
Johnsongrass plant response rating (johnsongrass; [8]): 100
Plant response rating (0 to 100), Johnsongrass (johnsongrass; Postemergence, 31 g ai/ha): 0
Plant response rating, Johnsongrass (johnsongrass; [9]): 0
Plant response rating, Johnsongrass (johnsongrass; [10]): 0
Plant response rating, Johnsongrass (johnsongrass; [11]): 0
Plant response rating, Johnsongrass (johnsongrass; [12]): 98
Johnsongrass plant response rating (johnsongrass; [13]): 100
Morningglory plant response rating (morningglory; [7]): 0
Plant response rating (0 to 100), Morningglory (morningglory; Postemergence, 31 g ai/ha): 0
Plant response rating, Morningglory (morningglory; [9]): 0
Plant response rating, Morningglory (morningglory; [10]): 0
Plant response rating, Morningglory (morningglory; [11]): 0
Plant response rating, Morningglory (morningglory; [12]): 0
Morningglory plant response rating (morningglory; [13]): 75
Nutsedge, Yellow plant response rating (yellow nutsedge; [7]): 40
Nutsedge, Yellow plant response rating (yellow nutsedge; [8]): 50
Plant response rating (0 to 100), Nutsedge, Yellow (yellow nutsedge; Postemergence, 31 g ai/ha): 0
Plant response rating, Nutsedge, Yellow (yellow nutsedge; [9]): 0
Plant response rating, Nutsedge, Yellow (yellow nutsedge; [10]): 0
Plant response rating, Nutsedge, Yellow (yellow nutsedge; [11]): 0
Plant response rating, Nutsedge, Yellow (yellow nutsedge; [12]): 0
Nutsedge, Yellow plant response rating (yellow nutsedge; [13]): 60
Velvetleaf plant response rating (velvetleaf [4]; [7]): 60
Velvetleaf plant response rating (velvetleaf [4]; [8]): 100
Plant response rating (0 to 100), Velvetleaf (velvetleaf [4]; Postemergence, 31 g ai/ha): 0
Plant response rating (0 to 100), Velvetleaf (velvetleaf [4]; Postemergence, 62 g ai/ha): 0
Plant response rating, Velvetleaf (velvetleaf [4]; [10]): 30
Plant response rating, Velvetleaf (velvetleaf [4]; [11]): 40
Plant response rating, Velvetleaf (velvetleaf [4]; [12]): 55
Velvetleaf plant response rating (velvetleaf [4]; [13]): 100
Plant response rating, Rice (rice; [14]): 0
Plant response rating, Rice (rice; [15]): 45
Plant response rating, Ducksalad (duck salad; [14]): 30
Plant response rating, Ducksalad (duck salad; [15]): 100

CCn1nc(C(F)(F)F)c(C[S+]([O-])c2cc(C)cc[n+]2[O-])c1OCC(F)(F)F (racemic) [Compound 66]
Plant response rating, Pigweed (redroot pigweed; Postemergence, 125 g ai/ha): 60
Pigweed plant response rating (redroot pigweed; [5]): 90
Pigweed plant response rating (redroot pigweed; [6]): 100
Plant response rating, Pigweed (redroot pigweed; Preemergence, 500 g ai/ha): 100
Plant response rating, Velvetleaf (velvetleaf [1]; Postemergence, 125 g ai/ha): 60
Velvetleaf plant response rating (velvetleaf [1]; [5]): 80
Velvetleaf plant response rating (velvetleaf [1]; [6]): 60
Plant response rating, Velvetleaf (velvetleaf [1]; Preemergence, 500 g ai/ha): 100
Plant response rating, Wheat (wheat [2]; Postemergence, 125 g ai/ha): 60
Wheat plant response rating (wheat [2]; [5]): 70
Wheat plant response rating (wheat [2]; [6]): 70
Plant response rating, Wheat (wheat [2]; Preemergence, 500 g ai/ha): 100
Bromegrass, Downy plant response rating (downy brome; [7]): 90
Bromegrass, Downy plant response rating (downy brome; [8]): 100
Plant response rating, Bromegrass, Downy (downy brome; [12]): 70
Bromegrass, Downy plant response rating (downy brome; [13]): 100
Wheat plant response rating (wheat [3]; [7]): 85
Wheat plant response rating (wheat [3]; [8]): 98
Plant response rating, Wheat (wheat [3]; [12]): 0
Wheat plant response rating (wheat [3]; [13]): 100
Oat, Wild plant response rating (wild oat; [7]): 85
Oat, Wild plant response rating (wild oat; [8]): 95
Plant response rating, Oat, Wild (wild oat; [12]): 85
Oat, Wild plant response rating (wild oat; [13]): 95
Corn plant response rating (corn; [7]): 80
Corn plant response rating (corn; [8]): 100
Corn plant response rating (corn; [13]): 100
Cupgrass, Woolly plant response rating (woolly cupgrass; [7]): 85
Cupgrass, Woolly plant response rating (woolly cupgrass; [8]): 100
Cupgrass, Woolly plant response rating (woolly cupgrass; [13]): 100
Foxtail, Giant plant response rating (giant foxtail; [7]): 100
Foxtail, Giant plant response rating (giant foxtail; [8]): 100
Plant response rating, Foxtail, Giant (giant foxtail; [12]): 100
Foxtail, Giant plant response rating (giant foxtail; [13]): 100
Johnsongrass plant response rating (johnsongrass; [8]): 80
Plant response rating, Johnsongrass (johnsongrass; [12]): 80
Johnsongrass plant response rating (johnsongrass; [13]): 80
Morningglory plant response rating (morningglory; [7]): 90
Morningglory plant response rating (morningglory; [8]): 90
Plant response rating, Morningglory (morningglory; [12]): 50
Morningglory plant response rating (morningglory; [13]): 100
Nutsedge, Yellow plant response rating (yellow nutsedge; [7]): 30
Nutsedge, Yellow plant response rating (yellow nutsedge; [8]): 40
Plant response rating, Nutsedge, Yellow (yellow nutsedge; [12]): 30
Nutsedge, Yellow plant response rating (yellow nutsedge; [13]): 50
Velvetleaf plant response rating (velvetleaf [4]; [7]): 90
Velvetleaf plant response rating (velvetleaf [4]; [8]): 95
Plant response rating, Velvetleaf (velvetleaf [4]; [12]): 70
Velvetleaf plant response rating (velvetleaf [4]; [13]): 100
Plant response rating, Rice (rice; [14]): 20
Plant response rating, Rice (rice; [15]): 70
Plant response rating, Ducksalad (duck salad; [14]): 70
Plant response rating, Ducksalad (duck salad; [15]): 90

From patent publication US20100298141A1, “SUBSTITUTED PYRIDINE N-OXIDE HERBICIDES” (E. I. DU PONT DE NEMOURS AND COMPANY, priority 2007, published 2010)
